Patent US20170158699A1, “ADDITION SALTS OF (S)-2-(1-(6-AMINO-5-CYANOPYRIMIDIN-4-YLAMINO)ETHYL)-4-OXO-3-PHENYL-3,4-DIHYDROPYRROLO[1,2-F][1,2,4]TRIAZINE-5-CARBONITRILE” (Almirall, S.A., priority 2014, published 2017)
In brackets after ≈: the same amount, converted by molar mass. Where two headings read alike, the source gives them in different places.

Assays:
Type in all cases: physicochemical
[1] = Gravimetric Vapour Sorption (GVS) isotherm, XRPD checked afterwards; details: for Hygroscopicity / water sorption behaviour (GVS): 0-90% RH; for Hygroscopicity / water sorption behaviour (GVS) / GVS mass change: 25° C.; for Change in form or crystallinity (XRPD) after GVS measurement: XRPD before and after GVS; for GVS mass change: from 0-90% RH
Procedure: X-Ray Powder Diffraction (XRPD) patterns were collected on a Bruker D8 diffractometer using Cu Ka radiation (40 kV, 40 mA), θ-2θ goniometer, and divergence of V4 and receiving slits, a Ge monochromator and a Lynxeye detector. The instrument is performance checked using a certified Corundum standard (NIST 1976). The software used for data collection was Diffrac Plus XRD Commander v2.6.1 and the data were analysed and presented using Diffrac Plus EVA v13.0.0.2 or v15.0.0.0.
Samples were run under ambient conditions as flat plate specimens using powder as received. The sample was gently packed into a cavity cut into polished, zero-background (510) silicon wafer. The sample was rotated in its own plane during analysis. The details of the data collection were: • Angular range: 2 to 42° 2θ • Step size: 0.05° 2θ • Collection time: 0.5 s/step
Gravimetric Vapour Sorption (GVS; also known as Dynamic Vapour Sorption or DVS) isotherms were obtained using a SMS DVS Intrinsic moisture sorption analyser, controlled by DVS Intrinsic Control software v1.0.1.2. The sample temperature was maintained at 25° C. by the instrument controls. The humidity was controlled by mixing streams of dry and wet nitrogen, with a total flow rate of 200 mL/min The relative humidity was measured by a calibrated Rotronic probe (dynamic range of 1.0-100% RH), located near the sample. The weight change, (mass relaxation) of the sample as a function of % RH was constantly monitored by the microbalance (accuracy ±0.005 mg).
Typically 5-20 mg of sample were placed in a tared mesh stainless steel basket under ambient conditions. The sample was loaded and unloaded at 40% RH and 25° C. (typical room conditions). A moisture sorption isotherm was performed as outlined below (4 scans giving 2 complete cycles). The standard isotherm was performed at 25° C. at 10% RH intervals over a 0-90% RH range.

[2] = Differential scanning calorimetry (DSC) thermal stability
Procedure: The differential scanning calorimetry (DSC) thermograms were obtained using a TA Instruments Q2000 equipped with a 50 position auto-sampler. The calibration for thermal capacity was carried out using sapphire and the calibration for energy and temperature was carried out using certified indium. […] (some runs up to 400° C.). A purge of dry nitrogen at 50 ml/min was maintained over the sample.

Water-solubility test = details: room temperature (25° C.)

Hygroscopicity / water sorption behaviour (GVS) [1]	Change in form or crystallinity (XRPD) after GVS measurement [1]	GVS mass change [1]	Stability of the sample up to temperature (DSC) [2]	solubility (Water-solubility test) [µg/mL]	Molecule	Water Solubility @ 25° C. (Water-solubility test) [µg/mL]	Stability of the sample up to temperature (DSC) ([2]; heated at 10° C./min, dry nitrogen purge)
reversible and no hydrates were formed	no change in form or crystallinity	approx. 3.3%	more than 250 °C		C[C@H](Nc1ncnc(N)c1C#N)c1nn2ccc(C#N)c2c(=O)n1-c1ccccc1.O=S(=O)(O)c1ccc2ccccc2c1 [Example 2, (S)-2-(1-(6-amino-5-cyanopyrimidin-4-ylamino)ethyl)-4-oxo-3-phenyl-3,4-dihydropyrrolo[1,2-f][1,2,4]triazine-5-carbonitrile naphthalene-2-sulfonate]		
not hygroscopic	no change in form or crystallinity	approx. 0.3%	more than 250 °C		C[C@H](Nc1ncnc(N)c1C#N)c1nn2ccc(C#N)c2c(=O)n1-c1ccccc1.Cc1ccc(S(=O)(=O)O)cc1 [Example 3, (S)-2-(1-(6-amino-5-cyanopyrimidin-4-ylamino)ethyl)-4-oxo-3-phenyl-3,4-dihydropyrrolo[1,2-f][1,2,4]triazine-5-carbonitrile para-toluenesulfonate]		
				1 (≈ 2.52 µM)	C[C@H](Nc1ncnc(N)c1C#N)c1nn2ccc(C#N)c2c(=O)n1-c1ccccc1 [Example C1, (S)-2-(1-(6-amino-5-cyanopyrimidin-4-ylamino)ethyl)-4-oxo-3-phenyl-3,4-dihydropyrrolo[1,2-f][1,2,4]triazine-5-carbonitrile]		

Molecule	Hygroscopicity / water sorption behaviour (GVS) [1]	Change in form or crystallinity (XRPD) after GVS measurement [1]	GVS mass change [1]	Stability of the sample up to temperature (DSC) [2]	solubility (Water-solubility test) [µg/mL]	Water Solubility @ 25° C. (Water-solubility test) [µg/mL]	Stability of the sample up to temperature (DSC) ([2]; heated at 10° C./min, dry nitrogen purge)
(S)-2-(1-(6-amino-5-cyanopyrimidin-4-ylamino)ethyl)-4-oxo-3-phenyl-3,4-dihydropyrrolo[1,2-f][1,2,4]triazine-5-carbonitrile methanesulfonate [Example 1]	not hygroscopic	no change in form or crystallinity	approx. 1.2%			60	more than 300 °C
